Results from patent US9066516B2, “Uses of thaxtomin and thaxtomin compositions as herbicides” (priority 2008, dated 2015).

Legend:
Type in all cases: in vivo
ragweed = assay: Greenhouse synergy test MBI-005 + commercial herbicides (Example 11); settings: 14 days
Procedure: The test species barnyard grass, ragweed, sedge, and broad-leaf mustard were used for the valuation of synergy between MBI-005 and the rice herbicides clomazone, penoxsulam, cyhalofop, fenoxaprop-p-ethyl, bispyribac-sodium, thiobencarb, and propanil.
[…] other herbicides commonly used for field crops, glyphosate, glufosinate, synthetic version of bialaphos, and mesotrione were also tested for synergy with MBI-005 on crabgrass and ragweed.
There were 3 replicates per treatment which were sprayed with approximately ⅔ ml per replicate. The treatments were completely randomized and kept in a greenhouse at 25° C. The efficacy was rated at 7 and 14 days post treatment.

[1] = system: sorghum (Sorghum bicolor); assay: Phytotoxicity on sorghum plants (Example 3); settings: 0.5 and 1.0 mg thaxtomin A/mL, three weeks after the treatment
Procedure: To test the phytotoxicity of thaxtomin A on sorghum plants, five seeds of sorghum (Sorghum bicolor) are planted in each 4″×4″ plastic pot filled with soil. Plants were grown under optimal conditions in a greenhouse before and after treatment with solutions containing 0.5 and 1.0 mg thaxtomin A/mL. At the time of the treatment, the plants are about 3 inches tall. Each treatment is applied in three replicates, and a control treatment included plants treated with just the carrier (4% EtOH, 0.02% polysorbate 60 POE (20) sorbitan monostearate). Evaluations for phytotoxicity are performed at 7-day intervals starting one week after treatment.

[2] = system: annual broadleaves, sedges and grasses; assay: Post-emergence spectrum of MBI-005, overall (Example 13); settings: unless surfactants are added
Procedure: To further describe the spectrum of post-emergence activity, tests were conducted in laboratory and field conditions. For laboratory testing, 3-10 plants (depending on the species) at the 1-2 leaf stage plants in 2.5 cm square pots containing Sunshine Mix No. 2 planting media were sprayed at 1 mg MBI-005/mL at a rate of 40 gal/A using a cabinet track sprayer. Negative controls were sprayed with water and positive controls with glufosinate. Pots were randomly placed in a growth room at 25° C. and 50% RH, and watered as necessary. Treatments were replicated five times and evaluated at 7 and 14 days for visual % damage, with 0% indicating no damage and 100% indicating plant death.
In field testing, field soil containing weeds at the 1-5 leaf stage were treated with 38.2 L MBI-005/ha at a spray volume of 374 L/ha. Treatments, including water as the negative control and WeedBGon or Preen Broadleaf as the positive control, were replicated four times and applied twice at a four week interval. The positive control on Late watergrass, Ricefield Bulrush, Smallflower sedge and Arrowhead was an herbicide containing as active ingredient 2,4-D and an organosilicone surfactant was added to MBI-005. Treatments were assessed for % control and % ground cover.
Post-emergent control of perennials was generally limited except for Oxalis pes-caprae.

crabgrass [3] = assay: Post-emergent MBI-005 + Atrazine on crabgrass (Example 17); settings: for AVG E (visual % damage): 7DAT; for AVG/ E (visual % damage): 14DAT
Procedure: (§1) Ten seedlings in 2.5 cm square pots containing plant growth mix were sprayed with two suboptimal rates of MBI-005, and 35% of the atrazine label rate (0.3 gallons/A), or a combination thereof, at a volume of 40 gal/A using a cabinet track sprayer. Negative controls were sprayed with water. Pots were randomly placed in a growth room at 25° C. and 50% RH, and watered as necessary. Treatments were replicated five times and evaluated at 7 and 14 days for visual % damage, with 0% indicating no damage and 100% indicating plant death.
(§2) Synergy was calculated as the ratio of observed (E) to expected (E/Ee) percent control using Colby's formula.

crabgrass [4] = assay: Post-emergent MBI-005 + Chelated Fe on crabgrass (Example 16); settings: 15 DAT
Procedure: as §1, with “14.49 mg/mL” for “and 35%”, “Chelated Fe,” for “the atrazine label rate (0.3 gallons/A),”, “15” for “14”
as §2

[5] = system: corn (Zea mays var. Early Sunglow); assay: Pot study, phytotoxicity on corn (Example 2); settings: 0.5 and 1.0 mg/mL, 7, 14 and 21 days after treatment
Procedure: A pot study is conducted to test the phytotoxicity of thaxtomin A on corn (Zea mays var. Early Sunglow) and wheat (Triticum aestivum var. PR1404). To confirm the activity on broadleaf weeds, pigweed (Amaranthus sp.) is planted in the same pot with either three corn or five wheat seeds, and sprayed simultaneously with the cereal test plants. The less than 3-inch tall plants grown under growth lights (12-h light/12-h dark) at 28° C. are sprayed with thaxtomin A solutions derived from a liquid culture of S. acidiscabies containing 0.5, and 1.0 mg thaxtomin A per mL of solvent (4% ethanol and 0.2% non-ionic surfactant). A solution of 4% ethanol +0.2% non-ionic surfactant without thaxtomin A is used as a control treatment. Each treatment is conducted in three replicates. Treated plants are kept at 28° C. under growth lights and observed at three time points—7, 14 and 21 days after treatment—for visual symptoms of phytotoxicity on corn and wheat and % control of pigweed.

[6] = system: annual grasses and broadleaves, some perennials; assay: Pre-emergence spectrum of MBI-005, overall (Example 12); settings: some perennials (Table 12)
Procedure: To further describe the spectrum of pre-emergence activity, tests were conducted in laboratory and field conditions. In laboratory testing, 35 seeds were placed on a ring of blotter paper inside a 3 cm petri dish and supplied with 4 ml of MBI-005 (≦0.1 mg MBI-005/ml). Water was used as a negative control and oryzalin applied as a positive control. Petri dishes were randomly placed in a growth room at 25° C. and 50% RH. Treatments were replicated three times and germinated seeds were counted 7 and 14 days after application; water was added as necessary to maintain moisture levels inside each petri dish.
In field testing, field soil containing weed seeds were treated with 38.2 L MBI-005/ha at a spray volume of 280 L/ha using a CO2 sprayer with flat fan nozzles. Treatments, including water as the negative control and Gallery as the positive control, were replicated four times and applied twice at a four week interval. Treatments were evaluated visually as % cover and above-ground fresh weights per container were taken.

barnyard grass = assay: Post-emergent MBI-005 + rice herbicides on barnyard grass (Example 18); settings: 14 days
Procedure: as §1, with “to full coverage” for “with two suboptimal rates of MBI-005, and 35% of the atrazine label rate (0.3 gallons/A), or a combination thereof, at a volume of 40 gal/A”, “hand” for “cabinet track”, “three” for “five”
Synergistic effect were noted between MBI-005 and all three rice herbicides, 14 days after treatment. Synergy was calculated as the ratio of observed (E) to expected (E/Ee) percent control using Colby's formula.

[7] = 12.5% MBI-005 Label Rate (0.125 mg/mL)
[8] = 25% MBI-005 Label Rate (0.25 mg/mL)

CN1C(=O)[C@](O)(Cc2cccc(O)c2)N(C)C(=O)[C@@H]1Cc1c[nH]c2cccc([N+](=O)[O-])c12 [thaxtomin A]
% Control MBI-005 (ragweed; MBI-005 0.125 mg/mL (bispyribac-sodium line)): 23.3% | % Control MBI-005 (ragweed; MBI-005 0.125 mg/mL (glufosinate line)): 37.5% | % Control MBI-005 (ragweed; MBI-005 0.125 mg/mL (glyphosate line)): 6.7% | phytotoxicity [1]: no phytotoxicity is observed | post-emergent activity [2]: limited post-emergent activity | AVG E (visual % damage) (crabgrass [3]; [7]): 10.0% | AVG E (visual % damage) (crabgrass [3]; [8]): 11.9% | AVG/ E (visual % damage) (crabgrass [3]; [7]): 10.0% | AVG/ E (visual % damage) (crabgrass [3]; [8]): 11.9% | AVG E (visual % damage) (crabgrass [4]; 12.5% MBI-005 (0.125 mg/mL)): 1.3% | AVG E (visual % damage) (crabgrass [4]; 25% MBI-005 (0.25 mg/mL)): 1.3% | symptoms of phytotoxicity [5]: no symptoms of phytotoxicity are observed | pre-emergence spectrum of activity [6]: broad spectrum activity | % Control MBI-005 (barnyard grass; MBI-005 12.5% of the label rate (Penoxsulam line)): 17.5% | % Control MBI-005 (barnyard grass; MBI-005 25% of the label rate (Bispyribac-sodium line)): 41.7%
